In patent publication US20230255873A1, “COSMETIC OR DERMATOLOGICAL PEPTIDE-BASED TREATMENT OF THE SKIN AND ITS INTEGUMENTS” (Sederma, priority 2020, published 2023):
The star is where a group is joined. Palmitoyl = CCCCCCCCCCCCCCCC(=O)*

How the values were obtained:
NHKs exposed to UVB = experiment: ELISA of pro-inflammatory mediators (PGE2 and IL-6) on NHK exposed to UVB; type: cell-based, human
Experimental: 1.1—Immuno-Enzymatic Assays (ELISA) on Normal Human Keratinocyte (NHK) Culture Principle: NHKs in culture and at confluence are brought into contact with the peptide of the invention at different concentrations for 24 hours in a medium allowing their survival. Then the cell layers are irradiated with UVB (light stress, intended to mimic an experimental cutaneous micro-inflammation) in a physiological buffer and again brought into contact with the products to be tested for 24 hours. At the end of this incubation, the culture media are assayed by ELISA to evaluate the amounts of pro-inflammatory mediators (PGE2 and IL-6) produced by these cells in response to irradiation. The results are compared to the control. A decrease in the amount of mediators produced will be interpreted as a limitation of damages related to inflammation. An estimate of the cell number is made on the attached layer to reduce the assay results to the number of cells. A study of variances and a Student t test are carried out to judge the significance of the results.

[1] = tested on: Normal Human Fibroblasts (NHF); experiment: Immuno-enzymatic tests on normal human fibroblasts (NHF) culture; type: cell-based; conditions: 3 days
Experimental: 1.3—Immuno-Enzymatic Tests on Normal Human Fibroblasts (NHF) Culture Principle: Normal Human Fibroblasts (NHF) are cultured in 24-well plates for 24 hours in the proliferation medium until confluence. The cells are then brought into contact or not (control case) with the preferred peptide according to the invention for 3 days in a medium without serum. The culture media are collected and the concentrations of various elements of the dermis or the basement membrane (PIP (carboxy-terminal propeptide of procollagen type I), collagen I, collagen IV, fibronectin) are measured by ELISA assays. An estimate of cell viability is also carried out at the end of culture, in order to weight the data from the ELISA, using an assay with the Hoechst 33258 reagent (DNA intercalator). A study of variances and a Student t test for paired series were carried out to judge the significance of the results.

equivalent skins = experiment: Thickness of the stratum corneum on equivalent skins; type: cell-based, human; conditions: 2 days of contact, vs control
Experimental: Equivalent skins were prepared by first manufacturing an equivalent dermis, then once it contracted, human keratinocytes were seeded on the surface of the gel. After 14 days, equivalent skins were obtained, on which carbopol gels containing the peptide of the invention or the solvent alone were applied to their surface. After 2 days of contact, the skins were frozen to be sectioned into thin 7 μm slides and then marked in order to visualize the macrostructure of the layers. A quantification of the thickness of the stratum corneum was carried out on photos using an image software.

[2] = tested on: HaCaT (human keratinocyte line); experiment: ELISA assay of hyaluronic acid on HaCaT culture; type: cell-based; conditions: 72 hours of contact
Experimental: This same type of test was carried out on a HaCaT culture (human keratinocyte line), but without the irradiation step, with a contact time of 72 hours between the cells and the peptide of the invention and an ELISA assay of hyaluronic acid on the culture medium.

P. acnes [3] = experiment: Biofilm stability of P. acnes (peptide added 24 hours after start of culture); type: cell-based, Propionibacterium acnes; conditions: peptide added 24 hours after the start of the culture
Experimental: The effect of the peptide on the biofilm stability was also evaluated, the peptide being only added 24 hours after the start of the P. acnes culture.

S. epidermidis = S. epidermidis growth (selectivity test); type: cell-based; conditions: 6 ppm and 12 ppm, 48 hours
Experimental: S. epidermidis was inoculated in an appropriate medium and its growth was followed over time. The peptide according to the invention (6 ppm and 12 ppm) was tested on these cells for 48 hours in comparison with the control case (n=6).

P. acnes [4] = experiment: Persistent effect on P. acnes growth after removal of the peptide; type: cell-based, Propionibacterium acnes; conditions: 48 hours of contact, then fresh medium without peptide
Experimental: This study was also carried out to follow the persistent effect of the peptide according to the invention on P. acnes, and to see if the inhibition can be quickly lifted in the absence of the peptide. The peptide was brought into contact with the cells from the start, as before. After 48 hours of contact and evaluation of the quantity of cells, the cells of all the cases were centrifuged and returned to a fresh medium without solvent or peptide, all the cases having the same quantity of cells. The growth was then assessed again.

[5] = tested on: P. acnes (strain ATCC6919); experiment: Adhesion of P. acnes to a surface; type: cell-based, Propionibacterium acnes; conditions: 48 hours and 72 hours, two concentrations tested
Excerpt: […] At the end of the contact plus more or less the peptide, the quantity of isolated cells, not attached, was estimated by an OD at 600 nm.

Substance: palmitoyl-lysyl-threonyl-serine-lysyl-serine (Palmitoyl-KTSKS-OH; SMILES CCCCCCCCCCCCCCCC(=O)N[C@@H](CCCCN)C(=O)N[C@H](C(=O)N[C@@H](CO)C(=O)N[C@@H](CCCCN)C(=O)N[C@@H](CO)C(=O)O)[C@@H](C)O) [Pal-KTSKS]
- IL6 secretion, variation compared to the control (NHKs exposed to UVB; 3 ppm): −4% (nsd)
- PGE2 secretion, variation compared to the control (NHKs exposed to UVB; 3 ppm): +1% (nsd)
- IL6 secretion, variation compared to the control (NHKs exposed to UVB; 10 ppm): −33% (p < 0.01)
- PGE2 secretion, variation compared to the control (NHKs exposed to UVB; 10 ppm): −41% (p < 0.01)
- IL6 secretion, variation compared to the control (NHKs exposed to UVB; 15 ppm): −65% (p < 0.01)
- PGE2 secretion, variation compared to the control (NHKs exposed to UVB; 15 ppm): −63% (p < 0.01)
- Collagen I Variation %/control ([1]; 8 ppm): +75%; p < 0.01
- Collagen IV Variation %/control ([1]; 8 ppm): +18%; p < 0.01
- Fibronectin Variation %/control ([1]; 8 ppm): +40%; p < 0.01
- Terminal C peptide of pro-collagen I variation %/control ([1]; 8 ppm): +61%; p < 0.01
- Collagen I Variation %/control ([1]; 10 ppm): +184%; p < 0.01
- Collagen IV Variation %/control ([1]; 10 ppm): +98%; p < 0.01
- Fibronectin Variation %/control ([1]; 10 ppm): +67%; p < 0.01
- Terminal C peptide of pro-collagen I variation %/control ([1]; 10 ppm): +94%; p < 0.01
- Thickness of the stratum corneum, Variation (%) (equivalent skins; 8 ppm of peptide in carbopol gel): +150%; p < 0.01
- Thickness of the stratum corneum, Variation (%) (equivalent skins; 10 ppm of peptide in carbopol gel): +143%; p < 0.05
- Secretion of hyaluronic acid, Variation %/non treated cells ([2]; 6 ppm): +33%; p < 0.01
- Secretion of hyaluronic acid, Variation %/non treated cells ([2]; 8 ppm): +42%; p < 0.01
- Secretion of hyaluronic acid, Variation %/non treated cells ([2]; 10 ppm): +62%; p < 0.01
- Secretion of hyaluronic acid, Variation %/non treated cells ([2]; 15 ppm): +107%; p < 0.01
- Reduction of the biofilm formed at 72 hours vs control (biofilm stability) (P. acnes [3]; 6 ppm): 89%
- Reduction of the biofilm formed at 72 hours vs control (biofilm stability) (P. acnes [3]; 12 ppm): 93%
- Growth of S. epidermidis relative to control (S. epidermidis): slight, temporary slowdown in growth
- Persistent effect on P. acnes growth once the peptide is removed (P. acnes [4]): no persistent effect
- Drop in adhesion of P. acnes [5]: more than 83%
